Data on 31 molecules can be found in US6093742A, “Inhibitors of p38” (Vertex Pharmaceuticals, Inc., priority 1997, dated 2000).

The target in this assay is T1, p38 (Homo sapiens, UniProt Q16539).
T1 construct: made in house; host or cells: Trichoplusia ni (Tn-368) High-Five insect cells infected with recombinant baculovirus (virus made in Sf9)
Put plainly: p38 inhibition assay: inhibition of phosphorylation of EGF receptor peptide. The format is biochemical. Particulars: activated p38 (5 nM), EGF receptor peptide 200 μM, ATP 100 μM, 30 min at 30° C., pH 7.6, HPLC. The text has this: Two splice variants of human p38 kinase, CSBPl and CSBP2, have been identified. Specific oligonucleotide primers were used to amplify the coding region of CSBP2 cDNA using a HeLa cell library (Stratagene) as a template. The polymerase chain reaction product was cloned into the pET-15b vector (Novagen). The baculovirus transfer vector, pVL-(His)6-p38 was constructed by subcloning a XbaI-BamHI fragment of pET15b-(His)6-p38 into the complementary sites in plasmid pVL1392 (Pharmingen).
P38 was activated by combining 0.5 mg/ml p38 with 0.005 mg/ml DD-double mutant MKK6 in Buffer B+10 mM MgCl2, 2 mM ATP, 0.2 mM Na2VO4 for 30 minutes at 20° C. The activation mixture was then loaded onto a 1.0×10 cm MonoQ column (Pharmacia) and eluted with a linear 20 column volume gradient to 1.0 M NaCl in Buffer B. The activated p38 eluted after the ADP and ATP. The activated p38 peak was pooled and dialyzed against buffer B+0.2 mM Na2VO4 to remove the NaCl. The dialyzed protein was adjusted to 1.1M potassium phosphate by addition of a 4.0M stock solution and loaded onto a 1.0×10 cm HIC (Rainin Hydropore) column previously equilibrated in Buffer D (10% glycerol, 20 mM β-glycerophosphate, 2.0 mM DTT)+1.1MK2HPO4. The protein was eluted with a 20 column volume linear gradient to Buffer D+50 mM K2HPO4. The double phosphorylated p38 eluted as the main peak and was pooled for dialysis against Buffer B+0.2 mM Na2VO4. The activated p38 was stored at -70° C.
Inhibition of Phosphorylation of EGF Receptor Peptide
This assay was carried out in the presence of 10 mM MgCl2, 25 mM β-glycerophosphate, 10% glycerol and 100 mM HEPES buffer at pH 7.6. For a typical IC50 determination, a stock solution was prepared containing all of the above components and activated p38 (5 nM). The stock solution was aliquotted into vials. A fixed volume of DMSO or inhibitor in DMSO (final concentration of DMSO in reaction was 5%) was introduced to each vial, mixed and incubated for 15 minutes at room temperature. EGF receptor peptide, […], a phosphoryl acceptor in p38-catalyzed kinase reaction (1), was added to each vial to a final concentration of 200 μM. The kinase reaction was initiated with ATP (100 μM) and the vials were incubated at 30° C. After 30 minutes, the reactions were quenched with equal volume of 10% trifluoroacetic acid (TFA).
The phosphorylated peptide was quantified by HPLC analysis. Separation of phosphorylated peptide from the unphosphorylated peptide was achieved on a reverse phase column (Deltapak, 5 μm, C18 100D, part no. 011795) with a binary gradient of water and acteonitrile, each containing 0.1% TFA. IC50 (concentration of inhibitor yielding 50% inhibition) was determined by plotting the % activity remaining against inhibitor concentration.

SMILES strings stand for the structures.

T1 sequence (Q16539 whole entry): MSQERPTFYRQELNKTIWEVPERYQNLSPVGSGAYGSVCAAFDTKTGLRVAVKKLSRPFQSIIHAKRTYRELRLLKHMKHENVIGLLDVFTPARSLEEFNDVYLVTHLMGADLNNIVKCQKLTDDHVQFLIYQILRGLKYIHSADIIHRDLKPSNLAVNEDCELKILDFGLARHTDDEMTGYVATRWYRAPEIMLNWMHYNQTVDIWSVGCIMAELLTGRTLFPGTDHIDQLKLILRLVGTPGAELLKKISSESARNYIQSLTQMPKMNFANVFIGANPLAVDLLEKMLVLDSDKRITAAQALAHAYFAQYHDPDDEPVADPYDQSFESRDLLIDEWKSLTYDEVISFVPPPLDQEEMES

One may read the IC50 as the concentration that gives 50% inhibition. Lower therefore signals inhibition by little substance. Molecule `Cc1cc(Cl)c([N+](=O)[O-])cc1NC(=O)Nc1ccccc1` [Compound 3] displayed a half-maximal inhibitory concentration (IC50) of 0.37 µM.

Take `COc1cc(Cl)c(C)cc1NC(=O)Nc1ccccc1` [Compound 4]: the IC50 stood at 0.1 µM.

As for `Cc1cc(C)c(NC(=O)Nc2ccccc2)cc1C` [Compound 10], the IC50 stood at 4.2 µM.

As for `COc1cc(OC)c(NC(=O)Nc2ccccc2)cc1Cl` [Compound 12], the midpoint of inhibition, the IC50, lay at 0.38 µM.

As to `COc1cc([N+](=O)[O-])c(C)cc1NC(=O)Nc1ccccc1` [Compound 13], the IC50 was 0.14 µM.

For `Cc1cc(NC(=O)Nc2ccccc2)c(Cl)cc1F` [Compound 15], the IC50 was 5.8 µM.

Take `COc1cc(OC)c(NC(=O)Nc2ccc(Oc3ccccc3)cc2)cc1Cl` [Compound 20]: the IC50 was 8 µM.

For `COc1cc(OC)c(NC(=O)Nc2cccc(Oc3ccccc3)c2)cc1Cl` [Compound 22], the IC50 turned out to be 1.9 µM.

In the case of `COc1cc(OC)c(NC(=O)Nc2ccc(Cl)c(Cl)c2)cc1Cl` [Compound 24], the half-maximal inhibitory concentration (IC50) is 0.5 µM.

With `COc1cc(OC)c(NC(=O)Nc2ccccc2)cc1Cl` [Compound 25], inhibition was half-maximal at 1 µM (IC50).

Turning to `COc1cc(OC)c(NC(=O)Nc2ccccc2O)cc1Cl` [Compound 28], the IC50 was found to be 7.4 µM.

As for `COc1cc(OC)c(NC(=O)Nc2ccc(F)cc2)cc1Cl` [Compound 29], the IC50 came out at 1.45 µM.

In turn, `COc1cc(OC)c(NC(=O)Nc2ccc(Cl)cc2F)cc1Cl` [Compound 30] yielded an IC50 of 1.2 µM.

Molecule `COc1cc(OC)c(NC(=O)Nc2ccccc2F)cc1Cl` [Compound 31] yielded an IC50 of 0.5 µM.

In turn, `COc1cc(OC)c(NC(=O)Nc2ccc(F)c(F)c2)cc1Cl` [Compound 33] registered an IC50 of 1.82 µM.

The molecule `COc1cc(OC)c(NC(=O)N(CC(=O)O)c2ccccc2)cc1Cl` [Compound 34] came in with an IC50 of 19 µM.

Take `COc1cc(OC)c(NC(=O)Nc2cccc(F)c2)cc1Cl` [Compound 35]: the IC50 is 0.63 µM.

Regarding `COc1cc(OC)c(NC(=O)Nc2cc(C)ccc2Cl)cc1Cl` [Compound 37], the half-maximal inhibitory concentration (IC50) came to 5.1 µM.

Take `COc1cc(OC)c(NC(=O)Nc2ccc3c(c2)OCO3)cc1Cl` [Compound 40]: the IC50 was found to be 1.5 µM.

In turn, `COc1cc(Cl)c(C)cc1NC(=O)Nc1ccccc1` [Compound 61] came in with an IC50 of 0.14 µM.

In turn, `O=C(Nc1ccccc1)Nc1ccc(Cl)c(Cl)c1` [Compound 62] displayed an IC50 of 5.6 µM.

In the case of `O=C(Nc1cccc(C(=O)O)c1)Nc1ccc(Cl)c(Cl)c1` [Compound 63], it took 5.8 µM to reach half-maximal inhibition (IC50).

Turning to `O=C(Nc1ccc(Cl)c(Cl)c1)Nc1ccc(Cl)c(Cl)c1` [Compound 64], it took 0.13 µM to reach half-maximal inhibition (IC50).

Turning to `NC(=O)c1ccccc1NC(=O)Nc1ccc(Cl)c(Cl)c1` [Compound 107], the IC50 was 0.1 µM.

Turning to `COc1cc(C)cc(NC(=O)Nc2ccc(Cl)c(Cl)c2)c1` [Compound 118], the IC50 was determined as 14.7 µM.

For `COC(=O)c1ccccc1NC(=O)Nc1ccc(Cl)c(Cl)c1` [Compound 119], the concentration for half-maximal inhibition (IC50) turned out to be 6.3 µM.

`CCOc1ccccc1NC(=O)Nc1ccc(Cl)c(Cl)c1` [Compound 121] showed an IC50 of 2.2 µM.

For `O=C(Nc1ccc(Cl)c(Cl)c1)Nc1ccccc1Cl` [Compound 122], the IC50 worked out at 15.1 µM.

On to `O=C(Nc1ccc(Cl)c(Cl)c1)Nc1ccc(Br)cc1C(=O)O` [Compound 125], for which 8.4 µM corresponded to half-maximal inhibition (IC50).

In turn, `O=C(Nc1ccc(Cl)c(Cl)c1)Nc1ccc2c(c1)OCCO2` [Compound 126] showed an IC50 of 5.6 µM.

As to `O=C(Nc1ccc(Cl)c(Cl)c1)Nc1cccc2cccnc12` [Compound 131], the IC50 was found to be 6.3 µM.
